Assay results from US8222278B2, “Treatment of attention-deficit/hyperactivity disorder” (Abbott Laboratories, priority 2008, dated 2012).

System: adults with ADHD
Assay: Study A: ABT-894 Adult ADHD Dose-Ranging crossover clinical study, efficacy rating scales
Format: in vivo, human
Method: A clinical study (Study A) was conducted to assess the safety and efficacy of ABT-894 compared to placebo in adults with ADHD and to evaluate the dose-response relationship.
A total of 243 subjects aged 18 to 60 years old meeting DSM-IV-TR criteria for ADHD were randomized across the 5 dose groups. Male or female patients were included. […] The disposition of the study subjects is further discussed with the study results below.
Subjects in each dose group received, in random order, both ABT-894 and placebo according to a 2×2 crossover design. Each treatment period was 4 weeks separated by a 2-week washout period.
Each site was assigned to one of two cohorts (Cohort A or Cohort B) in approximately a 3:2 ratio. Subjects in Cohort A were randomized in equal proportions to one of 6 treatment sequences in 3 dose groups, and subjects in Cohort B were randomized in equal proportions to one of 4 treatment sequences in 2 dose groups, as shown in Table 1. Within each dose group subjects received either ABT-894 or atomoxetine in Period 1 and placebo in Period 2, or placebo in Period 1 and ABT-894 or atomoxetine in Period 2.
The study medication was dispensed in the form of a capsule. Each capsule contained ABT-894, atomoxetine, or placebo. The capsules were made to look identical.
The primary efficacy endpoint was the Conners' Adult ADHD Rating Scale—Investigator Rated (CAARS:Inv) Total Score (18 items) at the final evaluation of each 4-week treatment period. The CAARS:Inv was assessed at baseline and Days 7. 14. 21, and 28 of each period. Each CAARS:Inv item was rated on a 4-point scale of frequency of occurrence (0=not at all, never; 3=very much. very frequently) during the previous 7 days.
Secondary efficacy endpoints included the CAARS:Inv Inattentive and Hyperactive/Impulsive Subscale Scores, Clinical Global Impression-ADHD-Severity Scale (CGI-ADHD-S). Adult ADHD Investigator Symptom Report Scale (AISRS), including total and subscales, and the Self-rated Connors Adult ADHD Rating Scale (CAARS-Self). Health outcomes including the Adult ADHD Quality of Life Scale (AAQoL) and Work Productivity and Activity Impairment Questionnaire (WPAI) were used to evaluate the validity of these scales in this study population for use in subsequent clinical trials.
The primary analysis was performed on each dose group separately according to the Statistical Analysis Plan (SAP). The primary statistical model that was used for analyzing the primary efficacy variable, the CAARS:INV total score, and all other secondary efficacy variables was determined by a SAP specified testing procedure. The comparability between two sequences for a given dose group with respect to the difference between period-specific baselines was tested using a one-way ANCOVA with the term of treatment and the Period I baseline as the covariate at the significance level of 0.10. The equal residual effect from Period I to Period II between two different sequences for a given dose group was tested using a standard model for cross-over data analysis, Grizzle model, on the term of “sequence” at the significance level of 0.10.
After the study blind was broken, across 5 dose groups. all the tests accepted the null hypothesis that there was no statistically significant treatment effect for the differences between the period-specific baselines. The tests also accepted the null hypothesis that there was no period residual effect in any of the dose groups. Accordingly, the Grizzle model was used as the primary analysis model to analyze treatment group difference for CAARS:INV total score at Day 28 for each dose group. The Grizzle Model was carried out by SAS PROC Mixed with the terms of study center. sequence, subjects within sequence, period, treatment, as well as period-specific baselines as covariates.
The primary efficacy dataset included all subjects who completed both periods of the study (completers dataset). […]

[1] = ABT-894 1 mg QD, day 28, completers N = 40
[2] = ABT-894 2 mg QD, day 28, completers N = 37
[3] = ABT-894 4 mg BID, day 28, completers N = 43
[4] = ABT-894 4 mg QD, day 28, completers N = 36

## Clc1cc(N2C[C@@H]3CN[C@@H]3C2)cnc1Cl [ABT-894, 3-(5,6-Dichloro-pyridin-3-yl)-1S,5S-3,6-diazabicyclo[3.2.0]heptane]
[1]
  AISRS Hyperactivity Score, mean difference from placebo: 1.53 (−0.8, 3.8)
  AISRS Inattention Score, mean difference from placebo: 1.72 (−0.6, 4.1)
  AISRS Total Score, mean difference from placebo: 3.19 (−1.2, 7.6)
  CAARS:Inv ADHD Index, mean difference from placebo: 1.84 (−0.0. 3.7)
  CAARS:Inv Hyperactive/Impulsive subscale score, mean difference from placebo: 0.93 (−0.2, 2.0)
  CAARS:Inv Inattentive subscale score, mean difference from placebo: 0.94 (−1.5, 3.4)
  CAARS:Inv Total Score, mean difference from placebo: 2.11 (−2.4, 6.6)
  CAARS:Self ADHD Index, mean difference from placebo: 2.04 (0.2, 3.9)
  CAARS:Self Hyperactivity Score, mean difference from placebo: 0.68 (−0.4, 1.8)
  CAARS:Self Impulsivity Score, mean difference from placebo: 0.65 (−0.1, 1.4)
  CAARS:Self Inattention/Memory Score, mean difference from placebo: 0.60 (−0.5, 1.7)
  CAARS:Self Problem with Self-concept Score, mean difference from placebo: 0.51 (−0.2, 1.2)
  CAARS:Self Total Score, mean difference from placebo: 3.57 (−0.4, 7.5)
  CGI-ADHD-S, mean difference from placebo: 0.04 (−0.3, 0.4)
ABT-894 2 mg QD
  Measures of sustained attention, inhibitory control, and executive function: improved measures of sustained attention, inhibitory control, and executive function
[2]
  AISRS Hyperactivity Score, mean difference from placebo: −1.11 (−3.0, 0.7)
  AISRS Inattention Score, mean difference from placebo: −1.59 (−3.6, 0.4)
  AISRS Total Score, mean difference from placebo: −2.72 (−6.4, 1.0)
  CAARS:Inv ADHD Index, mean difference from placebo: −1.52 (−3.3, 0.2)
  CAARS:Inv Hyperactive/Impulsive subscale score, mean difference from placebo: −0.55 (−1.4, 0.3)
  CAARS:Inv Inattentive subscale score, mean difference from placebo: −1.92 (−3.8, −0.1)
  CAARS:Inv Total Score, mean difference from placebo: −3.18 (6.7,0.3)
  CAARS:Self ADHD Index, mean difference from placebo: −1.50 (−3.3, 0.3)
  CAARS:Self Hyperactivity Score, mean difference from placebo: −0.57 (−1.4, 0.3)
  CAARS:Self Impulsivity Score, mean difference from placebo: −0.48 (−1.3, 0.3)
  CAARS:Self Inattention/Memory Score, mean difference from placebo: −0.23 (−1.2, 0.8)
  CAARS:Self Problem with Self-concept Score, mean difference from placebo: −0.57 (−1.6, 0.5)
  CAARS:Self Total Score, mean difference from placebo: −2.64 (−6.6, 1.3)
  CGI-ADHD-S, mean difference from placebo: −0.31 (−0.6, 0.0)
ABT-894 4 mg BID vs atomoxetine
  Efficacy measures compared with atomoxetine: comparable across efficacy measures
[3]
  AISRS Hyperactivity Score, mean difference from placebo: −3.58 (−5.6, −1.6)
  AISRS Inattention Score, mean difference from placebo: −4.26 (−6.6, −1.9)
  AISRS Total Score, mean difference from placebo: −8.07 (−12.2, −3.9)
  CAARS:Inv ADHD Index, mean difference from placebo: −3.37 (−5.3. −1.4)
  CAARS:Inv Hyperactive/Impulsive subscale score, mean difference from placebo: −1.90 (−3.0, −0.8)
  CAARS:Inv Inattentive subscale score, mean difference from placebo: −4.08 (−6.4, −1.7)
  CAARS:Self ADHD Index, mean difference from placebo: −3.31 (−5.2, −1.4)
  CAARS:Self Hyperactivity Score, mean difference from placebo: −1.74 (−2.9, −0.6)
  CAARS:Self Impulsivity Score, mean difference from placebo: −0.70 (−1.4, −0.0)
  CAARS:Self Inattention/Memory Score, mean difference from placebo: −1.40 (−2.5, −0.3)
  CAARS:Self Problem with Self-concept Score, mean difference from placebo: −1.39 (−2.5, −0.3)
  CAARS:Self Total Score, mean difference from placebo: −7.34 (−11.6, −3.1)
  CGI-ADHD-S, mean difference from placebo: −0.58 (−1.0, −0.2)
[4]
  AISRS Hyperactivity Score, mean difference from placebo: −0.81 (−2.6, 1.0)
  AISRS Inattention Score, mean difference from placebo: 0.81 (−1.2, 2.8)
  AISRS Total Score, mean difference from placebo: −0.13 (−3.6, 3.4)
  CAARS:Inv ADHD Index, mean difference from placebo: −0.12 (−1.8, 1.5)
  CAARS:Inv Hyperactive/Impulsive subscale score, mean difference from placebo: −1.07 (−2.1, −0.0)
  CAARS:Inv Inattentive subscale score, mean difference from placebo: 0.60 (−1.5, 2.7)
  CAARS:Inv Total Score, mean difference from placebo: 0.23 (−3.2, 3.7)
  CAARS:Self ADHD Index, mean difference from placebo: −0.19 (−1.9, 1.5)
  CAARS:Self Hyperactivity Score, mean difference from placebo: −0.78 (−1.8, 0.2)
  CAARS:Self Impulsivity Score, mean difference from placebo: −0.02 (−0.9, 0.9)
  CAARS:Self Inattention/Memory Score, mean difference from placebo: 0.11 (−0.9, 1.2)
  CAARS:Self Problem with Self-concept Score, mean difference from placebo: 0.33 (−0.7, 1.4)
  CAARS:Self Total Score, mean difference from placebo: −1.13 (−5.2, 2.9)
  CGI-ADHD-S, mean difference from placebo: −0.06 (−0.3, 0.2)
Human patients, compared to placebo
  Efficacy in the treatment of the core symptoms of ADHD: statistically significant efficacy compared to placebo
